Reference: BindingDB's records for doi:10.7270/Q2QC01XF (Nmmlsc, 2009)

Target: Ras-related protein Rab-2A (Canis lupus familiaris, UniProt P61105)
Experiment: Rab2 wildtype GTP-binding inhibitors, SAR follow-up, biochemical, additional analogs, bead-based flow cytometry, multiplex (AID 2046)

Sequence of Ras-related protein Rab-2A (P61105 whole entry): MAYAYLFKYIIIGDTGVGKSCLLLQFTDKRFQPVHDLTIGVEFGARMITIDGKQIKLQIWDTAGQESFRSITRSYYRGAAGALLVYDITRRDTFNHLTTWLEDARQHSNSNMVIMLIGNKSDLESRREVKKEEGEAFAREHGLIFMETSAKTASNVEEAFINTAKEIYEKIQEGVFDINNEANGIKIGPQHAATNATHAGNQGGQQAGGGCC

Compound | Ki [µM]
O=C1N=c2ccc(Br)cc2=C1c1[nH]c2ccccc2c1NO [5-bromanyl-3-[3-(oxidanylamino)-1H-indol-2-yl]indol-2-one] | 4.15
O=C1N=c2c(Br)cccc2=C1c1[nH]c2ccccc2c1NO [7-bromanyl-3-[3-(oxidanylamino)-1H-indol-2-yl]indol-2-one] | 4.19
